Counter-ions that a name gives are not always drawn.
Tests used:
[1] = target: Human KDR (residues 790-1356) (Homo sapiens (Human), UniProt P35968); test: Human KDR kinase assay, HTRF KinEase (Example B-2); assay type: biochemical; conditions: protocol of Example B-2 (other compounds)
In short: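 Human KDR residues 790-1356 (0.1 ng/well) in buffer with 5 mM MgCl2, 1 mM MnCl2, 1 mM DTT, biotinylated peptide substrate, ATP at Km (4.0 μM), 3% DMSO, 10 compound concentrations; 40 min, room temperature. EDTA stop, streptavidin-XL665/Eu-TK antibody HTRF read 665/620 nm; 4-parameter IC50.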

[2] = target: Human MER (residues 528-999) (Homo sapiens (Human), UniProt Q12866); test: Human Mer kinase assay, HTRF KinEase (Example C-2); assay type: biochemical; conditions: protocol of Example C-2 (other compounds)
In short: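 Recombinant MER 528-999 (1 ng/well) in buffer with 5 mM MgCl2 and 1 mM DTT was reacted with biotinylated peptide and ATP at Km (40 μM) for 60 min at room temperature. EDTA stop with SA-XL665 and Eu3+ TK antibody, then 665/620 nm HTRF read; IC50 from 4-parameter fit.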

[3] = target: Human MET (residues 956-1390) (Homo sapiens (Human), UniProt P08581); test: Human Met kinase assay, HTRF KinEase (Example D-2); assay type: biochemical; conditions: protocol of Example D-2 (other compounds); read-out: c-Met IC50
In short: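 MET kinase domain (956-1390), 0.1 ng/well, in buffer with 5 mM MgCl2, 1 mM DTT and 1 mM MnCl2, phosphorylated a biotinylated peptide at ATP Km for 40 min at RT; 10 concentrations, 3% DMSO final. EDTA-stopped HTRF read after 60 min; IC50 from a 4-parameter logistic fit.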

[4] = target: Mer (phospho-Mer, MERTK-transfected 293A cells) (Homo sapiens (Human), UniProt Q12866); test: Mer autophosphorylation ELISA in transient transfected 293A cells (Example H); assay type: cell-based; conditions: cellular activity; Mer autophosphorylation ELISA in transient transfected 293A cells
In short: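 293A cells transiently transfected with human MERTK were treated 1 h in serum-free medium with an 8-point compound dilution (0.3% DMSO final). Lysates were assayed by phospho-Mer sandwich ELISA against a phospho-Mer standard; IC50 came from a 4-parameter logistic fit, normalised to DMSO (100%) and reference-inhibitor (0%) controls.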

Chain of Human MET (residues 956-1390) (P08581 956-1390): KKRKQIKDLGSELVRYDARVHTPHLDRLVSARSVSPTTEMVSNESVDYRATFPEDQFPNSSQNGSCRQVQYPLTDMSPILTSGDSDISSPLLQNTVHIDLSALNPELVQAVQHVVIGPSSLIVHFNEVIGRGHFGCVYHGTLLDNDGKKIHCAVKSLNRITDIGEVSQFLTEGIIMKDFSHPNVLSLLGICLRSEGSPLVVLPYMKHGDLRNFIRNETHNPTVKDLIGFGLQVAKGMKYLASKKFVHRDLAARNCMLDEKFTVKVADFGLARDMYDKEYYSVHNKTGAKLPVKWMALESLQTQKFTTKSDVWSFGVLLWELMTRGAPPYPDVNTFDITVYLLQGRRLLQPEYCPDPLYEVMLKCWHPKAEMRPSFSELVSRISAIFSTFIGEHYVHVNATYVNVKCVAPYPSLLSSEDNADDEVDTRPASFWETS
Chain of Mer (phospho-Mer, MERTK-transfected 293A cells) (Q12866 21-999): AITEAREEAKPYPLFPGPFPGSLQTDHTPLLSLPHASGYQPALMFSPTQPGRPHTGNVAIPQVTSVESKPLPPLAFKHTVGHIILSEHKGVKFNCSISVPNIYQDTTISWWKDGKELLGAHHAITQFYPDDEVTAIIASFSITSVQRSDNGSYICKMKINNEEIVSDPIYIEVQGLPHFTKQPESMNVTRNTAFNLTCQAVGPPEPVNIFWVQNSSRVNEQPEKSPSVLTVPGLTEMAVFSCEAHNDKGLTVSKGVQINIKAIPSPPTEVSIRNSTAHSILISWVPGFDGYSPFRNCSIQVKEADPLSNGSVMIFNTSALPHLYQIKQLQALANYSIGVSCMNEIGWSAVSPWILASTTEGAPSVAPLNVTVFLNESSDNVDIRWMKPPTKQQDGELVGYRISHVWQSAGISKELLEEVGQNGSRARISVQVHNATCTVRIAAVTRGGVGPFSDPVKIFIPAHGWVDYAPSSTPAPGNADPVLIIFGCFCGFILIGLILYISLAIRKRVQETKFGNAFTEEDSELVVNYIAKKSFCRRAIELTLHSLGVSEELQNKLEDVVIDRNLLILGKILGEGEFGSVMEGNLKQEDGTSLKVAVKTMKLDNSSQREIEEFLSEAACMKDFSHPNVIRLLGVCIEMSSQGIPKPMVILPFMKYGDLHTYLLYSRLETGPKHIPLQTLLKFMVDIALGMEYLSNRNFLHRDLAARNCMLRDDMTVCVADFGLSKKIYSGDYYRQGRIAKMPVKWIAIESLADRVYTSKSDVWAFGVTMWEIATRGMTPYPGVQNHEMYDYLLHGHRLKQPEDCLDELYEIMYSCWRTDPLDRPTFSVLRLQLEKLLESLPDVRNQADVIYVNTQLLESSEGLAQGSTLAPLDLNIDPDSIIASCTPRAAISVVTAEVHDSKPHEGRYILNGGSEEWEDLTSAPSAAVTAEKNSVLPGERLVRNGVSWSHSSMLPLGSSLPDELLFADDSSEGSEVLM
Chain of Human MER (residues 528-999) (Q12866 528-999): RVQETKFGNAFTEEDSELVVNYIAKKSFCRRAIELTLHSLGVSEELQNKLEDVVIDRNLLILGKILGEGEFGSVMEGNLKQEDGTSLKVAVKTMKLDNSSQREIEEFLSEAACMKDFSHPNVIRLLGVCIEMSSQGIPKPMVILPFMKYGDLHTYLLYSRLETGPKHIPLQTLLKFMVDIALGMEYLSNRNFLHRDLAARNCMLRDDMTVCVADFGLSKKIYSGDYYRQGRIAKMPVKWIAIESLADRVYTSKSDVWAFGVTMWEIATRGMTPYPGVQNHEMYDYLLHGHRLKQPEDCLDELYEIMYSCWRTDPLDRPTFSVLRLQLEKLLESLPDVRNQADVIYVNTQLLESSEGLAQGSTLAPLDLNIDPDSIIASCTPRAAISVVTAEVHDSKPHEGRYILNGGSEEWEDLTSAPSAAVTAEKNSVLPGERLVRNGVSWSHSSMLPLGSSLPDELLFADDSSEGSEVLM
Chain of Human KDR (residues 790-1356) (P35968 790-1356): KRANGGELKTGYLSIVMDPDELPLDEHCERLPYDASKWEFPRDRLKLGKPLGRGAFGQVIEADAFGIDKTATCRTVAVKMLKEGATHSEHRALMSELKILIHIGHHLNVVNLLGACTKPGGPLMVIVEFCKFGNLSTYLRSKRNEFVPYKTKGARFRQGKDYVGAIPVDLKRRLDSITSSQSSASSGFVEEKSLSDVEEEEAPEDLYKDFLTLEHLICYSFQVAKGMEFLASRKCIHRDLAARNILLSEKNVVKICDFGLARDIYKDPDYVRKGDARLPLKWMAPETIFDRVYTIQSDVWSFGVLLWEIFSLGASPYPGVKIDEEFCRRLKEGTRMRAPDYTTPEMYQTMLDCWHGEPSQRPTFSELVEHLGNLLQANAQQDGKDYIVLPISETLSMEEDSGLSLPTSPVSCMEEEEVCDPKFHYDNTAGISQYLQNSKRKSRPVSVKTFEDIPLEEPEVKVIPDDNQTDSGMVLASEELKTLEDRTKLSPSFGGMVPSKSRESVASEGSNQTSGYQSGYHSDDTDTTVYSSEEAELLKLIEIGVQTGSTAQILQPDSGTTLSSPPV

Structure (SMILES) | IC50 [1] [µM] | IC50 [2] [µM] | IC50 [3] [µM] | IC50 [4] [µM]
CCn1cc(-c2ccc(F)cc2)c(=O)c(C(=O)Nc2ccc(Oc3ccnc4cc(OC)cnc34)c(F)c2)c1C [Compound 240, 1-Ethyl-N-[3-fluoro-4-[(7-methoxy-1,5-naphthyridin-4-yl)oxy]phenyl]-5-(4-fluorophenyl)-2-methyl-4-oxopyridine-3-carboxamide] | > 0.3 | < 0.1 | < 0.1 | < 0.1
COCc1nc(C)c(-c2ccc(F)cc2C)c(O)c1C(=O)Nc1ccc(Oc2ccnc3ccc(OC)nc23)c(F)c1 [Compound 195, N-[3-Fluoro-4-[(6-methoxy-1,5-naphthyridin-4-yl)oxy]phenyl]-5-(4-fluoro-2-methylphenyl)-4-hydroxy-2-(methoxymethyl)-6-methylpyridine-3-carboxamide] | > 0.3 | < 0.1 | 0.1 to 0.3 | < 0.1
COc1cnc2c(Oc3ccc(NC(=O)c4n[nH]c(C)c(-c5ccc(F)cc5C)c4=O)cc3)ccnc2c1 [Compound 248, 5-(4-Fluoro-2-methylphenyl)-N-[4-[(7-methoxy-1,5-naphthyridin-4-yl)oxy]phenyl]-6-methyl-4-oxo-1H-pyridazine-3-carboxamide] | > 0.3 | < 0.1 | < 0.1 | < 0.1
CCc1nc(C)c(-c2ccc(F)cc2C)c(O)c1C(=O)Nc1ccc(Oc2ccnc3ccc(OC)nc23)c(F)c1 [Compound 206, 2-Ethyl-N-[3-fluoro-4-[(6-methoxy-1,5-naphthyridin-4-yl)oxy]phenyl]-5-(4-fluoro-2-methylphenyl)-4-hydroxy-6-methylpyridine-3-carboxamide] | > 0.3 | < 0.1 | 0.1 to 0.3 | < 0.1
COc1ccc2nccc(Oc3ccc(NC(=O)c4cn(C)c(C)c(-c5ccc(F)cc5C)c4=O)cc3F)c2n1 [Compound 183, N-[3-Fluoro-4-[(6-methoxy-1,5-naphthyridin-4-yl)oxy]phenyl]-5-(4-fluoro-2-methylphenyl)-1,6-dimethyl-4-oxopyridine-3-carboxamide] | > 0.3 | < 0.1 | < 0.1 | < 0.1
COc1cnc2c(Oc3ccc(NC(=O)c4cnc(C)c(-c5ccc(F)cc5C)c4O)cc3)ccnc2c1 [Compound 176, 5-(4-Fluoro-2-methylphenyl)-4-hydroxy-N-[4-[(7-methoxy-1,5-naphthyridin-4-yl)oxy]phenyl]-6-methylpyridine-3-carboxamide] | > 0.3 | < 0.1 | < 0.1 | < 0.1
COc1cc2nccc(Oc3ccc(NC(=O)c4cn(C)c(CO)c(-c5ccc(F)cc5)c4=O)cc3)c2nc1OC [Compound 221, N-[4-[(6,7-Dimethoxy-1,5-naphthyridin-4-yl)oxy]phenyl]-5-(4-fluorophenyl)-6-(hydroxymethyl)-1-methyl-4-oxopyridine-3-carboxamide] | 0.1 to 0.3 | < 0.1 | < 0.1 | < 0.1
COc1cnc2c(Oc3ccc(NC(=O)c4nn(C)c(C)c(-c5ccc(F)cc5)c4=O)cc3F)ccnc2c1 [Compound 250, N-[3-Fluoro-4-[(7-methoxy-1,5-naphthyridin-4-yl)oxy]phenyl]-5-(4-fluorophenyl)-1,6-dimethyl-4-oxopyridazine-3-carboxamide] | > 0.3 | < 0.1 | < 0.1 | < 0.1
COc1cnc2c(Oc3ccc(NC(=O)c4cnc(CO)c(-c5ccc(F)cc5)c4O)cc3)ccnc2c1 [Compound 218, 5-(4-Fluorophenyl)-4-hydroxy-6-(hydroxymethyl)-N-[4-[(7-methoxy-1,5-naphthyridin-4-yl)oxy]phenyl]pyridine-3-carboxamide] | 0.1 to 0.3 | < 0.1 | < 0.1 | < 0.1

The remaining lines, values ahead:

IC50 [1] [µM] | IC50 [2] [µM] | IC50 [3] [µM] | IC50 [4] [µM] | Structure (SMILES)
< 0.1 | < 0.1 | < 0.1 | < 0.1 | COc1ccc(-c2c(C)n(C(C)C)cc(C(=O)Nc3ccc(Oc4ccnc5cc(OC)c(OC)nc45)c(F)c3)c2=O)cc1 [Compound 31, N-[4-[(6,7-dimethoxy-1,5-naphthyridin-4-yl)oxy]-3-fluorophenyl]-5-(4-methoxyphenyl)-6-methyl-4-oxo-1-propan-2-ylpyridine-3-carboxamide hydrochloride]
0.1 to 0.3 | < 0.1 | < 0.1 | < 0.1 | COCCOc1nc2c(Oc3ccc(NC(=O)c4cn(C)c(C)c(-c5ccc(F)cc5)c4=O)cc3F)ccnc2cc1OC [Compound 198, N-[3-Fluoro-4-[[7-methoxy-6-(2-methoxyethoxy)-1,5-naphthyridin-4-yl]oxy]phenyl]-5-(4-fluorophenyl)-1,6-dimethyl-4-oxopyridine-3-carboxamide]
< 0.1 | < 0.1 | < 0.1 | < 0.1 | COc1cc2nccc(Oc3ccc(NC(=O)c4cn(C(C)C)c(C)c(-c5cccc(F)c5)c4=O)cc3F)c2nc1OC [Compound 30, N-[4-[(6,7-Dimethoxy-1,5-naphthyridin-4-yl)oxy]-3-fluorophenyl]-5-(3-fluorophenyl)-6-methyl-4-oxo-1-propan-2-ylpyridine-3-carboxamide hydrochloride]
< 0.1 | < 0.1 | < 0.1 | < 0.1 | COc1cc2nccc(Oc3ccc(NC(=O)c4c(C)ncc(-c5ccc(F)cc5)c4O)cc3F)c2nc1OC [Compound 237, N-[4-[(6,7-Dimethoxy-1,5-naphthyridin-4-yl)oxy]-3-fluorophenyl]-5-(4-fluorophenyl)-4-hydroxy-2-methylpyridine-3-carboxamide]
0.1 to 0.3 | < 0.1 | < 0.1 | < 0.1 | COc1cnc2c(Oc3ccc(NC(=O)c4c(C)ncn(-c5ccc(F)cc5)c4=O)cc3F)ccnc2c1 [Compound 256, N-[3-Fluoro-4-[(7-methoxy-1,5-naphthyridin-4-yl)oxy]phenyl]-1-(4-fluorophenyl)-4-methyl-6-oxopyrimidine-5-carboxamide]
< 0.1 | < 0.1 | < 0.1 | < 0.1 | COc1cc2nccc(Oc3ccc(NC(=O)c4c(C)nc(C)c(-c5ccc(F)cc5C)c4O)cc3F)c2nc1OC [Compound 177, N-[4-[(6,7-Dimethoxy-1,5-naphthyridin-4-yl)oxy]-3-fluorophenyl]-5-(4-fluoro-2-methylphenyl)-4-hydroxy-2,6-dimethylpyridine-3-carboxamide]
< 0.1 | < 0.1 | < 0.1 | < 0.1 | COCc1nc(C)c(-c2ccc(F)cc2)c(O)c1C(=O)Nc1ccc(Oc2ccnc3cc(OC)c(OC)nc23)cc1 [Compound 190, N-[4-[(6,7-Dimethoxy-1,5-naphthyridin-4-yl)oxy]phenyl]-5-(4-fluorophenyl)-4-hydroxy-2-(methoxymethyl)-6-methylpyridine-3-carboxamide]
< 0.1 | < 0.1 | < 0.1 | < 0.1 | COCCOc1nc2c(Oc3ccc(NC(=O)c4ccc(C)n(-c5ccc(F)cc5)c4=O)cc3F)ccnc2cc1OC [Compound 227, N-[3-Fluoro-4-[[7-methoxy-6-(2-methoxyethoxy)-1,5-naphthyridin-4-yl]oxy]phenyl]-1-(4-fluorophenyl)-6-methyl-2-oxopyridine-3-carboxamide]
< 0.1 | < 0.1 | < 0.1 | < 0.1 | COc1cnc2c(Oc3ccc(NC(=O)c4c(C)nc(C)c(-c5ccc(F)cc5C)c4O)cc3F)ccnc2c1 [Compound 178, N-[3-Fluoro-4-[(7-methoxy-1,5-naphthyridin-4-yl)oxy]phenyl]-5-(4-fluoro-2-methylphenyl)-4-hydroxy-2,6-dimethylpyridine-3-carboxamide]
< 0.1 | < 0.1 | 0.1 to 0.3 | < 0.1 | CCc1nc(C)c(-c2ccc(F)cc2C)c(O)c1C(=O)Nc1ccc(Oc2ccnc3cc(OC)c(OC)nc23)cc1 [Compound 203, N-[4-[(6,7-Dimethoxy-1,5-naphthyridin-4-yl)oxy]phenyl]-2-ethyl-5-(4-fluoro-2-methylphenyl)-4-hydroxy-6-methylpyridine-3-carboxamide]
< 0.1 | < 0.1 | < 0.1 | < 0.1 | COc1cc2nccc(Oc3ccc(NC(=O)c4ccc(C)n(-c5ccc(F)cc5C)c4=O)cc3F)c2nc1OC [Compound 219, N-[4-[(6,7-Dimethoxy-1,5-naphthyridin-4-yl)oxy]-3-fluorophenyl]-1-(4-fluoro-2-methylphenyl)-6-methyl-2-oxopyridine-3-carboxamide]
